Literature values, collected in PubChem BioAssay AID1259409 (Chemical Carcinogenesis Research Information System (CCRIS), 2018).
Where “and” joins values, the source holds several entries; their conditions need not be identical. Equal values may be shown once.

Tested on: rodent chemically induced tumor inhibition, incidence and multiplicity
Assay: CCRIS tumor inhibitor studies

Oc1cc(O)c2c(c1)O[C@H](c1cc(O)c(O)c(O)c1)[C@H](O)C2
tumour outcome (control, treated, inhibition, significance) (Carcinogen: 4-METHYLNITROSAMINO-1-(3-PYRIDYL)-1-BUTANONE, 64091-91-4, Dose [Inhibitor]: 0, 560 PPM IN DRINKING WATER 2 WK PRIOR TO CARCINOGEN AND CONTINUING FOR 13 WK (STUDY DURATION: 29 WK), Route [Inhibitor]: ORAL, Species: MOUSE, Strain/Sex: A/J/FEMALE, Target Tissue: Type of Lesion: LUNG: ADENOMA, Dose [Carcinogen]: 11.65 MG/KG IN CORN OIL 3/WK FOR 10 WK, Promoter: NONE USED): 100%, 100%, 0%, not significant | tumour outcome (control, treated, inhibition, significance) (Carcinogen: N-ETHYL-N'-NITRO-N-NITROSOGUANIDINE, 4245-77-6, Dose [Inhibitor]: 0, 0.005% IN DRINKING WATER BEGINNING POST CARCINOGEN TREATMENT AND CONTINUING FOR DURATION OF STUDY (STUDY DURATION: 16, Route [Inhibitor]: ORAL, Species: MOUSE, Strain/Sex: C57BL/MALE, Target Tissue: Type of Lesion: DUODENUM: TUMOR, Dose [Carcinogen]: 100 MG/L IN DRINKING WATER FOR 4 WK, Promoter: NONE USED): 20/36 (63%), 6/30 (20%), 68%, p<0.001 | tumour outcome (control, treated, inhibition, significance) (Carcinogen: N-METHYL-N'-NITRO-N-NITROSOGUANIDINE, 70-25-7, Dose [Inhibitor]: 0, 0.005% IN DRINKING WATER BEGINNING POST CARCINOGEN TREATMENT AND CONTINUING FOR DURATION OF STUDY (STUDY DURATION: 44, Route [Inhibitor]: ORAL, Species: RAT, Strain/Sex: WISTAR/MALE, Target Tissue: Type of Lesion: GLANDULAR STOMACH: TUMOR, Dose [Carcinogen]: 100 MG/L IN DRINKING WATER FOR 28 WK, Promoter: NONE USED): 10/14 (71%), 6/10 (60%), 15%, not significant | tumour outcome (control, treated, inhibition, significance) (Carcinogen: N-METHYL-N'-NITRO-N-NITROSOGUANIDINE, 70-25-7, Dose [Inhibitor]: 0, 0.05% IN DRINKING WATER BEGINNING POST CARCINOGEN TREATMENT AND CONTINUING FOR DURATION OF STUDY (STUDY DURATION: 44, Route [Inhibitor]: ORAL, Species: RAT, Strain/Sex: WISTAR/MALE, Target Tissue: Type of Lesion: GLANDULAR STOMACH: TUMOR, Dose [Carcinogen]: 80 MG/L IN DRINKING WATER FOR 28 WK, Promoter: NONE USED): 21/34 (62%), 11/35 (31%), 50%, p<0.05 | tumour outcome (control, treated, inhibition, significance) (Carcinogen: PEROXYNITRITE [19059-14-4], Dose [Inhibitor]: 0.0025% IN WATER FROM 1 WK BEFORE TO 1 WK AFTER INITIATION, Route [Inhibitor]: DRINKING WATER, Species: MOUSE, Strain/Sex: SENCAR/FEMALE, Target Tissue: Type of Lesion: SKIN: PAPILLOMA, Dose [Carcinogen]: 390 UMOL ONCE (STUDY DURATION: 20 WKS), Promoter: TETRADECANOYL PHORBOL ACETATE [16561-29-8]): 100%; 10%, 90% (at wk 11)

CCCCC1C(=O)N(c2ccccc2)N(c2ccccc2)C1=O
tumour outcome (control, treated, inhibition, significance) (Carcinogen: N-NITROSOBIS(2-OXOPROPYL)AMINE, 60599-38-4, Dose [Inhibitor]: 0, 0.25% IN DIET FOR 27 WK BEGINNING POST LAST CARCINOGEN DOSE (STUDY DURATION: 32 WK), Route [Inhibitor]: ORAL, Species: HAMSTER, Strain/Sex: SYRIAN/FEMALE, Target Tissue: Type of Lesion: PANCREAS: ADENOCARCINOMA, Dose [Carcinogen]: 10 MG/KG 1/WK FOR 5 WK, Promoter: NONE USED): 20/28 (71%), 7/19 (37%), 48%, p<0.05

S=C=NC(Cc1ccccc1)c1ccccc1 (stereo not given)
tumour outcome (control, treated, inhibition, significance) (Carcinogen: 4-(METHYLNITROSAMINO)-1-(3-PYRIDYL)-1-BUTANONE, 64091-91-4, Dose [Inhibitor]: 0, 1 UMOL ONCE 2 HR PRIOR TO CARCINOGEN DOSE (STUDY DURATION: 16 WK), Route [Inhibitor]: GAVAGE, Species: MOUSE, Strain/Sex: STRAIN-A/FEMALE, Target Tissue: Type of Lesion: LUNG: ADENOMA, Dose [Carcinogen]: 10 UMOL IN 0.1 ML SALINE ONCE, Promoter: NONE USED): 100%, 60%, 40%, p<0.05 | tumour outcome (control, treated, inhibition, significance) (Carcinogen: 4-(METHYLNITROSAMINO)-1-(3-PYRIDYL)-1-BUTANONE, 64091-91-4, Dose [Inhibitor]: 0, 5 UMOL ONCE 2 HR PRIOR TO CARCINOGEN DOSE (STUDY DURATION: 16 WK), Route [Inhibitor]: GAVAGE, Species: MOUSE, Strain/Sex: STRAIN-A/FEMALE, Target Tissue: Type of Lesion: LUNG: ADENOMA, Dose [Carcinogen]: 10 UMOL IN 0.1 ML SALINE ONCE, Promoter: NONE USED): 100%, 45%, 55%, p<0.05

COc1cc(/C=C/C(=O)OCCc2ccccc2)ccc1O
tumour outcome (control, treated, inhibition, significance) (Carcinogen: AZOXYMETHANE, 25843-45-2, Dose [Inhibitor]: 0, 750 PPM IN DIET FOR 56 WK BEGINNING 2 WK PRIOR TO CARCINOGEN TREATMENT (STUDY DURATION: 56 WK), Route [Inhibitor]: ORAL, Species: RAT, Strain/Sex: F344/MALE, Target Tissue: Type of Lesion: COLON: ADENOCARCINOMA, Dose [Carcinogen]: 15 MG/KG BW 1/WK FOR 2 WK, Promoter: NONE USED): 81%, 43%, 47%, p<0.002 | tumour outcome (control, treated, inhibition, significance) (Carcinogen: AZOXYMETHANE, 25843-45-2, Dose [Inhibitor]: 0, 750 PPM IN DIET FOR 56 WK BEGINNING 2 WK PRIOR TO CARCINOGEN TREATMENT (STUDY DURATION: 56 WK), Route [Inhibitor]: ORAL, Species: RAT, Strain/Sex: F344/MALE, Target Tissue: Type of Lesion: EAR DUCT: TUMOR, Dose [Carcinogen]: 15 MG/KG BW 1/WK FOR 2 WK, Promoter: NONE USED): 25%, 0%, 100%, p<0.02 | tumour outcome (control, treated, inhibition, significance) (Carcinogen: AZOXYMETHANE, 25843-45-2, Dose [Inhibitor]: 0, 750 PPM IN DIET FOR 56 WK BEGINNING 2 WK PRIOR TO CARCINOGEN TREATMENT (STUDY DURATION: 56 WK), Route [Inhibitor]: ORAL, Species: RAT, Strain/Sex: F344/MALE, Target Tissue: Type of Lesion: SMALL INTESTINE: INVASIVE ADENOCARCINOMA, Dose [Carcinogen]: 15 MG/KG BW 1/WK FOR 2 WK, Promoter: NONE USED): 16%, 10%, 38%, not significant

CC(=O)O[C@H]1CC(C)(C)C(=C=C/C(C)=C/C=C/C(C)=C/C=C/C=C(C)/C=C/C=C(\C)C(=O)C[C@@]23O[C@]2(C)C[C@@H](O)CC3(C)C)[C@](C)(O)C1
tumour outcome (control, treated, inhibition, significance) (Carcinogen: N-ETHYL-N'-NITRO-N-NITROSOGUANIDINE, 70-25-7, Dose [Inhibitor]: 0, 0.005% IN DRINKING WATER (DISSOLVED IN 50 MG/ML DMSO) FOR 4 WK BEGINNING POST CARCINOGEN TREATMENT FOLLOWED BY 12 WK, Route [Inhibitor]: ORAL, Species: MOUSE, Strain/Sex: C57BL/MALE, Target Tissue: Type of Lesion: DUODENUM: TUMORS, Dose [Carcinogen]: 100 MG/L IN DRINKING WATER AD LIBITUM FOR 4 WK, Promoter: NONE USED): 14/28 (78%), 13/20 (65%), 17%, not significant | tumour outcome (control, treated, inhibition, significance) (Carcinogen: N-ETHYL-N'-NITRO-N-NITROSOGUANIDINE, 70-25-7, Dose [Inhibitor]: 0, 0.005% IN DRINKING WATER (DISSOLVED IN 50 MG/ML DMSO) FOR 16 WK BEGINNING POST CARCINOGEN TREATMENT (STUDY DURATION:, Route [Inhibitor]: ORAL, Species: MOUSE, Strain/Sex: C57BL/MALE, Target Tissue: Type of Lesion: DUODENUM: TUMORS, Dose [Carcinogen]: 100 MG/L IN DRINKING WATER AD LIBITUM FOR 4 WK, Promoter: NONE USED): 14/21 (67%), 7/20 (35%), 48%, p<0.05 and 14/28 (78%), 6/20 (30%), 62%, p<0.005 | tumour outcome (control, treated, inhibition, significance) (Carcinogen: N-ETHYL-N'-NITRO-N-NITROSOGUANIDINE, 4245-77-6, Dose [Inhibitor]: 0, 0.005% IN DRINKING WATER BEGINNING POST CARCINOGEN TREATMENT AND CONTINUING FOR 16 WK (STUDY DURATION: 20 WK), Route [Inhibitor]: ORAL, Species: MOUSE, Strain/Sex: C57BL/MALE, Target Tissue: Type of Lesion: DUODENUM: TUMOR, Dose [Carcinogen]: 100 MG/L DRINKING WATER FOR 4 WK, Promoter: NONE USED): 14/21 (67%), 7/20 (35%), 48%, p<0.05

CC(C)(C)c1cc(C(C)(C)C)c(O)c(C(C)(C)C)c1
tumour outcome (control, treated, inhibition, significance) (Carcinogen: BENZO[A]PYRENE, 50-32-8, Dose [Inhibitor]: 0.03 MMOL/G OF DIET DAILY STARTING 7 D BEFORE AND CONTINUING THROUGH 3 D AFTER CARCINOGEN TREATMENT FOLLOWED BY OBSERVAT, Route [Inhibitor]: ORAL, Species: MOUSE, Strain/Sex: ICR/FEMALE, Target Tissue: Type of Lesion: FORESTOMACH: NEOPLASM, Dose [Carcinogen]: 1 MG IN 0.2 ML CORN OIL 2/WK FOR 4 WK, Promoter: NONE USED): 100%, 93%, 7%, not significant
